Measured values from US20120301551A1, “COMPOUNDS AND COMPOSITIONS FOR TREATING NEURONAL DEATH OR NEUROLOGICAL DYSFUNCTION” (Neurotech Pharmaceuticals Co., Ltd., priority 2005, published 2012).
Like-named read-outs stand apart in the source and are kept apart here.

Experiments:
[1] = tested on: BV-2 cell line (production of NO); assay: anti-inflammatory effect: suppression of LPS-induced production of NO; assay type: cell-based; conditions: BV-2 cell line treated by LPS; for IC50: read-out: IC50 (uM) B: suppressing effect on production of NO
Protocol: After BV-2 cell line was treated by LPS to induce production of NO, the anti-inflammatory effects of many compounds were evaluated. Results were shown as IC50 (uM) (Item B of Table 3 below).
(§1) In the Table 3, A, B and C mean neuron protecting effect against Fe^+2, suppressing effect on production of NO and suppressing effect on production of beta-amyloid, respectively. The term “ND” means “Not determined.”

cerebral cortical cell = assay: anti-oxidant effect: neuron protecting effect against Fe+2 (50 uM FeCl2); assay type: cell-based; conditions: cerebral cortical cell treated by 50 uM FeCl2
Protocol: After cerebral cortical cell was treated by 50 uM FeCl2 to induce oxidative stress, the anti-oxidant effects of many compounds were evaluated. Results were shown as IC50 (uM) (Item A of Table 3 below).
as §1

beta-amyloid (Aβ42) = assay: suppression of beta-amyloid (Aβ42) production in CHO cells (ELISA); assay type: cell-based, Chinese hamster
Protocol: The suppressing effects of many drug candidates on production of beta-amyloid were evaluated in CHO cell line having the increased level of beta-amyloid. Results were shown as IC50 (uM) (Item C of Table 3 below).
as §1
Cells were treated with increasing concentrations of various chemicals in Chinese hamster ovary (CHO) cells stably transfected with human wild APP695 and the PS1ΔExon9, and analyzed Aβ42 levels in culture medium by colorimetric sandwich ELISA kit (BIOSOURCE, Camarillo, Calif.). In CHO cells, IC50 of Chemical—01-08 on Aβ42 lowering effect was 20-100 uM (Table 4).

[2] = Cricetulus griseus, CHO cell line having the increased level of beta-amyloid, read-out: IC50 (uM) C: suppressing effect on production of beta-amyloid
[3] = CHO cell line having the increased level of beta-amyloid
[4] = CHO cell line having the increased level of beta-amyloid, read-out: IC50 (uM) C: suppressing effect on production of beta-amyloid
[5] = Cricetulus griseus, CHO cells stably transfected with human wild APP695 and PS1ΔExon9, culture medium, ELISA, read-out: Aβ42 lowering effect (IC50)

| SMILES | IC50 ([1]; Mus musculus) [µM] | IC50 (cerebral cortical cell; Neuron) [µM] | other results |
| --- | --- | --- | --- |
| O=C(O)c1cc(NCCc2ccc(C(F)(F)F)cc2)ccc1O [Compound 01] | 24.3 | 0.099 | IC50 (beta-amyloid (Aβ42); [2]): 19.6 µM |
| O=C(O)c1cc(NCCc2ccccc2)ccc1O [Compound 02] | > 100 | 1.04 |  |
| O=C(O)c1cc(NCCc2ccccc2C(F)(F)F)ccc1O [Compound 03] | 33 | 0.1 |  |
| O=C(O)c1cc(NCCc2cccc(C(F)(F)F)c2)ccc1O [Compound 04] | 26.1 | 0.08 |  |
| COc1ccc(CCNc2ccc(O)c(C(=O)O)c2)cc1 [Compound 05] | 60.3 | 0.11 |  |
| O=C(O)c1cc(NCCc2cc(F)ccc2F)ccc1O [Compound 06] | 82.2 | 0.27 |  |
| O=C(O)c1cc(NCCc2ccccc2Cl)ccc1O [Compound 07] | 60.8 | 0.11 | IC50 (beta-amyloid (Aβ42); [2]): 19.1 µM |
| O=C(O)c1cc(NCCc2cccc(Cl)c2)ccc1O [Compound 08] | 76.5 | 0.23 |  |
| O=C(O)c1cc(NCCc2ccccc2Br)ccc1O [Compound 09] | 78.8 | 0.14 |  |
| O=C(O)c1cc(NCCc2cccc(Br)c2)ccc1O [Compound 10] |  | 0.23 | IC50 (uM) B: suppressing effect on production of NO [1]: No |
| Cc1ccc(CCNc2ccc(O)c(C(=O)O)c2)cc1 [Compound 11] | 23.9 | 0.24 |  |
| O=C(O)c1cc(NCCc2c(F)cccc2F)ccc1O [Compound 12] | 62.7 | 0.36 |  |
| COc1ccccc1CCNc1ccc(O)c(C(=O)O)c1 [Compound 13] | 94 | 0.27 |  |
| O=C(O)c1cc(NCCc2ccc(Cl)cc2)ccc1O [Compound 14] | > 100 | 0.11 |  |
| COc1cccc(CCNc2ccc(O)c(C(=O)O)c2)c1 [Compound 15] |  | 0.32 | IC50 (uM) B: suppressing effect on production of NO [1]: No |
| O=C(O)c1cc(NCCc2ccc(F)cc2F)ccc1O [Compound 17] | > 300 | 0.21 |  |
| O=C(O)c1cc(NCCc2ccc(Cl)c(Cl)c2)ccc1O [Compound 18] | 63.2 | 0.1 |  |
| O=C(O)c1cc(NCCc2cccc(F)c2)ccc1O [Compound 19] | 82.6 | 0.26 |  |
| O=C(O)c1cc(NCCc2ccccc2[N+](=O)[O-])ccc1O [Compound 20] | 12.5 | 0.4 |  |
| O=C(O)c1cc(NCCc2ccc(F)c(F)c2)ccc1O [Compound 21] | 23.7 | 0.32 | IC50 (beta-amyloid (Aβ42); [2]): 68 µM |
| O=C(O)c1cc(NCCc2cc(F)cc(F)c2)ccc1O [Compound 22] | 135 | 0.25 |  |
| O=C(O)c1cc(NCCc2ccccc2F)ccc1O [Compound 23] | 34.9 | 0.11 |  |
| O=C(O)c1cc(NCCc2ccc(Cl)cc2Cl)ccc1O [Compound 24] | 40.8 | 0.031 | IC50 (beta-amyloid (Aβ42); [2]): 29.2 µM |
| Cc1ccccc1CCNc1ccc(O)c(C(=O)O)c1 [Compound 25] | 18.6 | 0.07 | IC50 (uM) C: suppressing effect on production of beta-amyloid (beta-amyloid (Aβ42); [3]): No |
| O=C(O)c1cc(NCCc2cccc(C(F)(F)F)c2F)ccc1O [Compound 26] | 61.7 | 0.13 | IC50 (beta-amyloid (Aβ42); [2]): > 100 µM |

| SMILES | IC50 ([1]; Mus musculus) [µM] | IC50 (cerebral cortical cell; Neuron) [µM] | other results |
| --- | --- | --- | --- |
| O=C(O)c1cc(NCCc2cc(C(F)(F)F)cc(C(F)(F)F)c2)ccc1O [Compound 27] |  |  | IC50 [1]: 6.25 µM; IC50 (cerebral cortical cell): 0.044 µM; IC50 (beta-amyloid (Aβ42); [4]): 109 µM |
| O=C(O)c1cc(NCCCc2ccc(F)cc2)ccc1O [Compound 28] | 20.3 | 0.12 |  |
| CCOc1ccc(CCNc2ccc(O)c(C(=O)O)c2)cc1 [Compound 29] | 42.2 | 0.18 |  |
| Cc1cccc(CCNc2ccc(O)c(C(=O)O)c2)c1 [Compound 30] | 23.6 | 0.39 | IC50 (uM) C: suppressing effect on production of beta-amyloid (beta-amyloid (Aβ42); [3]): No |
| O=C(O)c1cc(NCCc2ccc(F)cc2C(F)(F)F)ccc1O [Compound 31] | 4.08 | 0.25 |  |
| O=C(O)c1cc(NCCCc2ccccc2)ccc1O [Compound 32] | 85.4 | 0.29 |  |
| O=C(O)c1cc(NCCc2ccc(F)c(C(F)(F)F)c2)ccc1O [Compound 33] |  |  | IC50 [1]: 31.1 µM; IC50 (cerebral cortical cell): 0.036 µM; IC50 (beta-amyloid (Aβ42); [4]): > 100 µM |
| O=C(O)c1cc(NCCc2cc(F)cc(C(F)(F)F)c2)ccc1O [Compound 34] | 98.8 | 0.13 | IC50 (uM) C: suppressing effect on production of beta-amyloid (beta-amyloid (Aβ42); [3]): No |
| O=C(O)c1cc(NCCCc2ccc(F)c(F)c2)ccc1O [Compound 35] | 67.5 | 0.035 | IC50 (beta-amyloid (Aβ42); [2]): > 100 µM |
| O=C(O)c1cc(NCCc2ccc(C(F)(F)F)cc2F)ccc1O [Compound 36] | 99.8 | 0.06 | IC50 (beta-amyloid (Aβ42); [2]): > 100 µM |
| O=C(O)c1cc(NCCc2cc(F)ccc2C(F)(F)F)ccc1O [Compound 37] | > 100 | 0.27 |  |
| O=C(O)c1cc(NCCc2cc(C(F)(F)F)ccc2F)ccc1O [Compound 38] | 35 | 0.069 | IC50 (uM) C: suppressing effect on production of beta-amyloid (beta-amyloid (Aβ42); [3]): No |
| O=C(O)c1cc(NCCc2ccc(F)cc2)ccc1O [Compound 39] |  | 0.31 | IC50 (uM) B: suppressing effect on production of NO [1]: No |
| O=C(O)c1cc(NCCCCc2ccccc2)ccc1O [Compound 40] | > 100 | 0.073 | IC50 (uM) C: suppressing effect on production of beta-amyloid (beta-amyloid (Aβ42); [3]): No |
| Cc1ccc(CCCNc2ccc(O)c(C(=O)O)c2)cc1 [Compound 41] | 26.5 | 0.11 | IC50 (uM) C: suppressing effect on production of beta-amyloid (beta-amyloid (Aβ42); [3]): No |
| O=C(O)c1cc(NCCCc2ccc(C(F)(F)F)cc2)ccc1O [Compound 42] | 6.7 | 0.062 | IC50 (beta-amyloid (Aβ42); [2]): 68.3 µM |
| O=C(O)c1cc(NCCCc2ccc(Cl)c(Cl)c2)ccc1O [Compound 43] | 51.8 | 0.04 | IC50 (beta-amyloid (Aβ42); [2]): 111 µM |
| O=C(O)c1cc(NCCCc2ccc(Cl)cc2Cl)ccc1O [Compound 44] | 51 | 0.12 |  |
| O=C(O)c1cc(NCCc2ccc(C(F)(F)F)c(F)c2)ccc1O [Compound 45] | 20.7 | 0.1 |  |
| O=C(O)c1cc(NCCc2ccc(O)cc2)ccc1O [Compound 47] |  |  | IC50 [1]: 11.5 µM; IC50 (cerebral cortical cell): 0.32 µM |
| O=C(O)c1cc(NCCc2ccc(OC(F)(F)F)cc2)ccc1O [chemical 16, 2-Hydroxy-5-[2-(4-trifluoromethoxy-phenyl)-ethylamino]-benzoic acid] |  |  | IC50 (beta-amyloid (Aβ42); [5]): 67.5 µM |
| O=C(O)c1cc(NCCc2ccc(F)c(F)c2)ccc1O [chemical 21, 5-[2-(3,4-Difluoro-phenyl)-ethylamino]-2-hydroxy-benzoic acid] |  |  | IC50 (beta-amyloid (Aβ42); [5]): 68 µM |
| O=C(O)c1cc(NCCc2ccc(Cl)cc2Cl)ccc1O [chemical 24, 5-[2-(2,4-Dichloro-phenyl)-ethylamino]-2-hydroxy-benzoic acid] |  |  | IC50 (beta-amyloid (Aβ42); [5]): 29.2 µM |
| O=C(O)c1cc(NCCCc2ccc(Cl)c(Cl)c2)ccc1O [chemical 43, 5-[3-(3,4-Dichloro-phenyl)-propylamino]-2-hydroxy-benzoic acid] |  |  | IC50 (beta-amyloid (Aβ42); [5]): 111 µM |
